Experimental data published in patent US20050059744A1, “Methods and compositions for the treatment of pain and other alpha 2 adrenergic-mediated conditions” (Allergan, Inc., priority 2003, published 2005).
Read-outs that look alike come from different tables or passages of the source.

Columns and labels:
[1] = test system: sulprostone-induced allodynia in mice; assay: Sulprostone-induced allodynia mouse model, paint brush pain score; type: in vivo
Description: Alternatively, allodynia can be induced in mice through intrathecal treatment of the animals with 200 ng sulprostone (prostaglandin E2 receptor agonist) in 50% DMSO and in a volume of 5 μl. In this model, the pain response to stroking the flank with a paint brush is scored 8 times over a 35 minute period starting 15 minutes following spinal administration of sulprostone. Minami et al., 57 Pain 217-223 (1994).
The compounds are formulated in approximately 0.01-5% DMSO and given in a volume of 1 ml/kg body weight for systemic dosing or 5 μl in saline for intrathecal dosing. Clonidine is tested at intrathecal doses ranging between 0.01 and 10.0 μg.
Amitriptylene is dissolved in 50% DMSO at the indicated doses and injected in a volume of 5 ul intrathecally into each mouse, in conjunction with either a 30 ug/kg IP injection of 5-methylurapadil or with a similar injection of saline.
Experimental procedure is the same as in Example 1, except both clonidine (various doses) and 5-methylurapidil (1 microgram intrathecal) are coadministered by intrathecal injection in a 50% DMSO vehicle and in a total volume of 5 microliters.

[2] = test system: intraocular pressure of rabbit eyes; assay: Normotensive intraocular pressure in rabbit eyes after topical instillation (pneumatonometer); type: in vivo, New Zealand rabbits
Description: Male New Zealand rabbits are used to evaluate drug effects on normotensive IOP measurements. The rabbits are carefully handled so as to minimize excitement. They should be picked up by the nape of the neck, with their hindlegs supported by the other hand. After removing the rabbit from its cage, approximately 25 ul of dilute Ophthetic® (0.05%) topical anesthesia is administered to each eye. An initial IOP determination is made in both eyes. Rabbits with 3 mmHg or greater difference in IOP between right and left eyes are replaced at this time.
Immediately following the time zero (T=0) reading in both eyes, one eye of each experimental rabbit is instilled with an ophthalmic formulation of 0.1% (w/w) brimonidine tartrate onto the cornea of the randomly selected test eye. […] The other eye is given the vehicle containing no drug. The ophthalmic formulations comprise 50 ppm Purite® (stabilized chlorine dioxide), 0.5% carboxymethylcellulose, 0.6% (w/w) borate buffer (pH 7.7) and small amounts of salts (NaCl, KCl, CaCl2, MgCl2). Intraocular pressure of both treated (ipsalateral)and untreated (contralateral) eyes is measured at the indicated time intervals for seven hours. Pressure readings utilize a Model 30 Classic™ Pneumatonometer as the measuring and recording instrument. It measures intraocular pressure (IOP) non-invasively through applanation tonometry.

sedation = assay: Clonidine sedative activity dose response with or without 5-methylurapadil (FIG. 2); settings: co-administration of 5-methyl urapidil 30 μg/kg intraperitoneal vs clonidine alone
Description: (§1) To test sedation, six male Sprague-Dawley rats are given various doses of a clonidine intrathecal injection. Sedation is graded 30 minutes following administration of the drug by monitoring locomotor skills as follows. Rats are placed in a dark covered chamber and a digicom analyzer (Omnitech Electronic) quantitates their exploratory behavior for a five-minute period. The machine records each time the rat interrupts an array of 32 photoelectric beams in the X and Y orientation, and quantifies the difference in behavior as compared to control animals given saline instead of clonidine.

[3] = test system: Chung model of allodynic rats
From the text: A model for chronic pain (in particular peripheral neuropathy) involves the surgical ligation of the L5 (and optionally the L6) spinal nerves on one side in experimental animals. Rats recovering from the surgery gain weight and display a level of general activity similar to that of normal rats. However, these rats develop abnormalities of the foot, wherein the hindpaw is moderately everted and the toes are held together. More importantly, the hindpaw on the side affected by the surgery appears to become sensitive to pain from low-threshold mechanical stimuli, such as that producing a faint sensation of touch in a human, within about 1 week following surgery. This sensitivity to normally non-painful touch is called “tactile allodynia” and lasts for at least two months. The response includes lifting the affected hindpaw to escape from the stimulus, licking the paw and holding it in the air for many seconds. None of these responses is normally seen in the control group.
Rats are anesthetized before surgery. The surgical site is shaved and prepared either with betadine or novacaine. Incision is made from the thoracic vertebra X111 down toward the sacrum. Muscle tissue is separated from the spinal vertebra (left side) at the L4-S2 levels. The L6 vertebra is located and the transverse process is carefully removed with a small rongeur to expose the L4-L6 spinal nerves. The L5 and L6 spinal nerves are isolated and tightly ligated with 6-0 silk thread. The same procedure is done on the right side as a control, except no ligation of the spinal nerves is performed.
A complete hemostasis is confirmed, then the wounds are sutured. A small amount of antibiotic ointment is applied to the incised area, and the rat is transferred to the recovery plastic cage under a regulated heat-temperature lamp. […]
In the Chung rat model, tactile allodynia is measured prior to and 30 minutes after drug administration using von Frey hairs that are a series of fine hairs with incremental differences in stiffness. […]

male Sprague-Dawley rats = settings: graded 30 minutes after administration
Description: as §1

[4] = 0.1% brimonidine and 0.003% prazosin, FIG. 4D
[5] = 35 microliters 0.003% prazosin instilled, FIG. 4A

CN(C)CCC=C1c2ccccc2CCc2ccccc21 [Amitriptylene, amitriptylene]
reduction in the dosage necessary to achieve maximal analgesia ([1]; amitriptylene intrathecal with 30 ug/kg IP 5-methylurapadil vs with saline): approximately three

Brc1c(NC2=NCCN2)ccc2nccnc12 [brimonidine]
lowering of intraocular pressure ([2]; 0.1% brimonidine alone, after the first 30 minutes, FIG. 4B): ~30% | initial change in intraocular pressure ([2]; 0.1% brimonidine alone, within the first 30 minutes, FIG. 4B): pronounced increase | initial change in intraocular pressure [2, 4]: only a very small increase | peak IOP lowering [2, 4]: approximately 40% | difference in intraocular pressure response vs brimonidine alone ([2]; co-installation of 0.1% brimonidine and 0.001% prazosin, FIG. 4C): Little difference

Clc1cccc(Cl)c1N=C1NCCN1 [clonidine]
sedating dose (sedation): unchanged | analgesia ([3]; intrathecal dose of 0.1 μg, allodynic rats): no analgesia | analgesia ([3]; intrathecal dose of 1.0 μg, allodynic rats): maximal analgesia | analgesia ([3]; rats, dose-dependence statement): analgesic | sedation (male Sprague-Dawley rats; intrathecal dose of 3.0 μg): mildly sedating | sedation (male Sprague-Dawley rats; intrathecal dose of 10 μg): maximal sedation | shift of the effective analgesic dose lower vs clonidine alone ([1]; 5-methyl urapidil 30 μg/kg intraperitoneal 5 minutes before clonidine): 10 fold | analgesia ([1]; clonidine 0.1 microgram intrathecal in the absence of prazosin): not analgesic | analgesic results compared with intraperitoneal injection of the alpha 1 antagonist ([1]; clonidine (various doses) and 5-methylurapidil 1 microgram coadministered intrathecally): substantially similar | decrease in the EC50 for clonidine vs i.t. clonidine alone ([1]; coadministration of prazosin 100 ng/kg intraperitoneal): four | analgesia ([1]; mice, dose-dependence statement): analgesic

COc1cc2nc(N3CCN(C(=O)c4ccco4)CC3)nc(N)c2cc1OC [prazosin]
intraocular pressure compared to the untreated eye [2, 5]: small initial drop | return to baseline pressure [2, 5]: 2 h
